Data published in PMC4076210, “Discovery of Novel AKT Inhibitors with Enhanced Anti-Tumor Effects in Combination with the MEK Inhibitor” (PLoS ONE, 2014).
Where two headings read alike, the source gives them in different places.

Experiments:
Assay type in all cases: biochemical
[1] = target: T1, Abl(T315I)(h) (Homo sapiens, UniProt P00519, T315I); assay: Kinase panel
T1 construct: purchased Millipore KinaseProfiler

[2] = target: T2, CK1γ1(h) (Homo sapiens, UniProt Q9HCP0); assay: Kinase panel
T2 construct: purchased Millipore KinaseProfiler
T2 sequence (Q9HCP0 whole entry): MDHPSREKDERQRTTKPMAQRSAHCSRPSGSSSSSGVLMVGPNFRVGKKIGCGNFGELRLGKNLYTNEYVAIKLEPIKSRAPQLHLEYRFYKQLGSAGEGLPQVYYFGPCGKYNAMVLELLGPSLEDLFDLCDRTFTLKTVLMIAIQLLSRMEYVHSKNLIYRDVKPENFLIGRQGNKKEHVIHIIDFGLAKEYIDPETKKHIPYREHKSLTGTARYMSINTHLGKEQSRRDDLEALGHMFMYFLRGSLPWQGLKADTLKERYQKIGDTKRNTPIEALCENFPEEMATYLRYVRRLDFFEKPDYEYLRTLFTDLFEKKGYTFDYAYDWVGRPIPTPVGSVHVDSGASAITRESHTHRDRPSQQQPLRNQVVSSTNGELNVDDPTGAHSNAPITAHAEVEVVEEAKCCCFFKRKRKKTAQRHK

[3] = target: T3, CSK(h) (Homo sapiens, UniProt P41240); assay: Kinase panel
T3 construct: purchased Millipore KinaseProfiler

[4] = target: T4, EphA5(h) (Homo sapiens, UniProt P54756); assay: Kinase panel
T4 construct: purchased Millipore KinaseProfiler
T4 sequence (P54756 25-1037): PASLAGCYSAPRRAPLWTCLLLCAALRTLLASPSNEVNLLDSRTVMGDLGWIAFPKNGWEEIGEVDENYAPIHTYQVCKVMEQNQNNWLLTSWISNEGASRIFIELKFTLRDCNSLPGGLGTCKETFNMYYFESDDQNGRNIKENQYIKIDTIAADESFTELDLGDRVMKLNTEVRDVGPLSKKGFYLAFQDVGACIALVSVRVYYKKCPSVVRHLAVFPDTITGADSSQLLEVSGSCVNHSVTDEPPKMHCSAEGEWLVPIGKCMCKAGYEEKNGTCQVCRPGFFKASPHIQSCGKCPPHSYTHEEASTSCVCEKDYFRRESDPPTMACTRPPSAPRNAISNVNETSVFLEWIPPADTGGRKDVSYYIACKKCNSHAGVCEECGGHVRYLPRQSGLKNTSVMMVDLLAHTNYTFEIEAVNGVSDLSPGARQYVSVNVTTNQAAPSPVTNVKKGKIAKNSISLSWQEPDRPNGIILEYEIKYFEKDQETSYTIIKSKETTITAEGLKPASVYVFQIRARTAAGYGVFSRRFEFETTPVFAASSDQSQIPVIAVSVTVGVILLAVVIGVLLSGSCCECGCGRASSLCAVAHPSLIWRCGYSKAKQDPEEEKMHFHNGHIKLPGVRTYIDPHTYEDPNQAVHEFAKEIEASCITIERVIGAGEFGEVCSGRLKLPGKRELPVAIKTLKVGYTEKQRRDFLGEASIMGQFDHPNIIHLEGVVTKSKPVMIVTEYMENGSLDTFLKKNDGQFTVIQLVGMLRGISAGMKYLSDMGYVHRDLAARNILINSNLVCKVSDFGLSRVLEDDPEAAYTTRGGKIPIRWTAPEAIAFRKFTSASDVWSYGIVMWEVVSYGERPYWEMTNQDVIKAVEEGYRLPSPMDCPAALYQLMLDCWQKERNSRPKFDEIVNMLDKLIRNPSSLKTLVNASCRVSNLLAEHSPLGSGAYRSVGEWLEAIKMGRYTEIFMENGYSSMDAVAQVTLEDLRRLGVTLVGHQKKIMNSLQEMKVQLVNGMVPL

[5] = target: T5, EphA7(h) (Homo sapiens, UniProt Q15375); assay: Kinase panel
T5 construct: purchased Millipore KinaseProfiler
T5 sequence (Q15375 28-998): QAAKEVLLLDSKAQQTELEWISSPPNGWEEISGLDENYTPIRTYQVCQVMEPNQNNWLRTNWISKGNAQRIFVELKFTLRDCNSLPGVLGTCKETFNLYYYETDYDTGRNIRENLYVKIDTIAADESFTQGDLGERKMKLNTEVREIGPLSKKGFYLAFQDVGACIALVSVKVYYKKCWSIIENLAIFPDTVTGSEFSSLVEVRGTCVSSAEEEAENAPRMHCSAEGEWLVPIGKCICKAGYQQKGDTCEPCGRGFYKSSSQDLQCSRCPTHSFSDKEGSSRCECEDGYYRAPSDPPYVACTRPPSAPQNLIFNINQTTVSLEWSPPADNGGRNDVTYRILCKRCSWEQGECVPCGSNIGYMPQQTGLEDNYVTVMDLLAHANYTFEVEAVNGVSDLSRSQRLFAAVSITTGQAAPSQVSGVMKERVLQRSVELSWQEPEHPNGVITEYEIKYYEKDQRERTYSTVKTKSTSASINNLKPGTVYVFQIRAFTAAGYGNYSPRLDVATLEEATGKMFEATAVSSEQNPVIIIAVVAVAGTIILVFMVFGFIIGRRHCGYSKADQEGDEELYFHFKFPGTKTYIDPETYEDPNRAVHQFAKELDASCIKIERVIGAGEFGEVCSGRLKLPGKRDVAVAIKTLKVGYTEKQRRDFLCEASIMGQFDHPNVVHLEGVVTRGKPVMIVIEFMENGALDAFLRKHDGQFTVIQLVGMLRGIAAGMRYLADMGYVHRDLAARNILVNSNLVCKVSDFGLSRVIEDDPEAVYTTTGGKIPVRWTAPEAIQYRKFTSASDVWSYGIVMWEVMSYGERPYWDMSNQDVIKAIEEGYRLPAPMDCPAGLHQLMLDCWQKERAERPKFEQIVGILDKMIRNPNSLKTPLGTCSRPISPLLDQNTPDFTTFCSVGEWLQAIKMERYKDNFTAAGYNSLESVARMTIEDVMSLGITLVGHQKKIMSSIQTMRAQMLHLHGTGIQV

[6] = target: T6, Flt3(D835Y)(h) (Homo sapiens, UniProt P36888, D835Y); assay: Kinase panel
T6 construct: purchased Millipore KinaseProfiler
T6 sequence (P36888 27-993 D835Y): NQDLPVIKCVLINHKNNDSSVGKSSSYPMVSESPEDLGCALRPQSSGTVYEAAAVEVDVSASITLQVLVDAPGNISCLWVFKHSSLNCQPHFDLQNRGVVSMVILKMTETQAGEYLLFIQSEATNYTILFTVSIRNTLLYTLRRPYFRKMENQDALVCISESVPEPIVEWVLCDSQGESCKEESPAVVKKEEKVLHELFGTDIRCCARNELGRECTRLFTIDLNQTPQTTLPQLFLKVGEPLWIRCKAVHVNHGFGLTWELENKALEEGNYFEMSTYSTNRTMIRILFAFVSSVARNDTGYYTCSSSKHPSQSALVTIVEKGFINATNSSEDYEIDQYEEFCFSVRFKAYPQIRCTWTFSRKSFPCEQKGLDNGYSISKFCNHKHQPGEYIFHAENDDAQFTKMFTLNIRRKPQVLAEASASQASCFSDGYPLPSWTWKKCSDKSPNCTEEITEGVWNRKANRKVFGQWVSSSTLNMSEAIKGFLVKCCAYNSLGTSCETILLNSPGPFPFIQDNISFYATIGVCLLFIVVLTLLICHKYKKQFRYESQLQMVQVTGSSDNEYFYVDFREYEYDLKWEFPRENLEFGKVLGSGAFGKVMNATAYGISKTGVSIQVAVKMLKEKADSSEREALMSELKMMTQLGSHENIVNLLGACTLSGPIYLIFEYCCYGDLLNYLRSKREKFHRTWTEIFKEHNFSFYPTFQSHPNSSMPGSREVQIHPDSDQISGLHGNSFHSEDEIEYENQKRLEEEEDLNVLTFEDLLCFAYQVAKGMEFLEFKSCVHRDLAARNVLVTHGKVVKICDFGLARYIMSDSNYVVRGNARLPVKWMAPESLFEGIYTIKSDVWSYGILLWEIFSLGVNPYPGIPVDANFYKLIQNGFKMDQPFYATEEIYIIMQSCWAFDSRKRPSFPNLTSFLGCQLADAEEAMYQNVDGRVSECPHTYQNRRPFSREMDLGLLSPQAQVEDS

[7] = target: T7, IGF-1R(h) (Homo sapiens, UniProt P08069); assay: Kinase panel
T7 construct: purchased Millipore KinaseProfiler

[8] = target: T8, IKKβ(h) (Homo sapiens, UniProt O14920); assay: Kinase panel
T8 construct: purchased Millipore KinaseProfiler
T8 sequence (O14920 1-756): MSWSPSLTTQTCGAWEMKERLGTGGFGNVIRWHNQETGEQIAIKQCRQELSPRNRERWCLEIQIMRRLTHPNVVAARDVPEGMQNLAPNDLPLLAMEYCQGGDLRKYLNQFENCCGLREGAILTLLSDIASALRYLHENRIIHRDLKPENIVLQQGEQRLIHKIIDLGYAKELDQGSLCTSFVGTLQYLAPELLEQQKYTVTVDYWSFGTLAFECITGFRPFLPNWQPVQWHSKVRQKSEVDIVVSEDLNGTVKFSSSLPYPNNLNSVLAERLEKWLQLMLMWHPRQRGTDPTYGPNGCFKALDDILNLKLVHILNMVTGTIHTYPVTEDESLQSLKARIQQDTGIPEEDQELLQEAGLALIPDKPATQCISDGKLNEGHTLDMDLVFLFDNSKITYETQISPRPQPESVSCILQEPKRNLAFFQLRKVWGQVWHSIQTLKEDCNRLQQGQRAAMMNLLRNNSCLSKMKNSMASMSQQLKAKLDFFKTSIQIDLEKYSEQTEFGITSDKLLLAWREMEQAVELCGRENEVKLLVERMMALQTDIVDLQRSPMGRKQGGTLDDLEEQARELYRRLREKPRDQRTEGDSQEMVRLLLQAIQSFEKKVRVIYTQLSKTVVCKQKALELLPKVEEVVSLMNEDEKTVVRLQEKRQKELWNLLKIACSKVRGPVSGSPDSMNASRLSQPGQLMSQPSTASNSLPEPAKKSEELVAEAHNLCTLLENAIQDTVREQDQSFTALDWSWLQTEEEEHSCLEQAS

[9] = target: T9, PDGFRα(V561D)(h) (Homo sapiens, UniProt P16234, V561D); assay: Kinase panel
T9 construct: purchased Millipore KinaseProfiler
T9 sequence (P16234 24-1089 V561D): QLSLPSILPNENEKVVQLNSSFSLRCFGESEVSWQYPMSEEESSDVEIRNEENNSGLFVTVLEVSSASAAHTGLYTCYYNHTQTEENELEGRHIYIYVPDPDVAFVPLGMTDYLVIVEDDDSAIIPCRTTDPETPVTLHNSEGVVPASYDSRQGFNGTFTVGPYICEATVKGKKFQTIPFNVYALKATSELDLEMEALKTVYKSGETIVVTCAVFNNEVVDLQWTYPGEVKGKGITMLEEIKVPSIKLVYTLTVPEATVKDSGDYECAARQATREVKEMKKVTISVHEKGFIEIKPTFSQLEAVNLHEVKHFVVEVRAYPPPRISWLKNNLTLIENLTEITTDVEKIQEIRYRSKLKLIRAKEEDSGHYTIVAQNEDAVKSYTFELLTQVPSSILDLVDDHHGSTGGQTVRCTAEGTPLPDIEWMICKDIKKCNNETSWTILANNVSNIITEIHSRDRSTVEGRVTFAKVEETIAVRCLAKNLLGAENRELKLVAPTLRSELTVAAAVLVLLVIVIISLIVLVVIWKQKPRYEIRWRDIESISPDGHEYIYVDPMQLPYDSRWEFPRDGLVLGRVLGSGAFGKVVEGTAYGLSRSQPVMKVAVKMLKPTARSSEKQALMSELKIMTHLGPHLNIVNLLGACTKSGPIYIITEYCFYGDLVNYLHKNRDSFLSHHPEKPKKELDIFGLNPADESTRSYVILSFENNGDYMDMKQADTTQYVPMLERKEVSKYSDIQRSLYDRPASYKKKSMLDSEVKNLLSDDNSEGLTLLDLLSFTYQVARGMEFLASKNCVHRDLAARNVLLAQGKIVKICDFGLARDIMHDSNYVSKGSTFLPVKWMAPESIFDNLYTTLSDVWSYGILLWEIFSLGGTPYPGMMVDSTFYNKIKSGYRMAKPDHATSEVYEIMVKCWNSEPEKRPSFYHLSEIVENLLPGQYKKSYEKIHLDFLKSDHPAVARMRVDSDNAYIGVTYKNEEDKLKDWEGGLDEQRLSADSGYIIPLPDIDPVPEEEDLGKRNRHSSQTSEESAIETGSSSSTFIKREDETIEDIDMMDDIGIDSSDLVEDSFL

[10] = target: T10, Ret(h) (Homo sapiens, UniProt P07949); assay: Kinase panel
T10 construct: purchased Millipore KinaseProfiler
T10 sequence (P07949 29-1114): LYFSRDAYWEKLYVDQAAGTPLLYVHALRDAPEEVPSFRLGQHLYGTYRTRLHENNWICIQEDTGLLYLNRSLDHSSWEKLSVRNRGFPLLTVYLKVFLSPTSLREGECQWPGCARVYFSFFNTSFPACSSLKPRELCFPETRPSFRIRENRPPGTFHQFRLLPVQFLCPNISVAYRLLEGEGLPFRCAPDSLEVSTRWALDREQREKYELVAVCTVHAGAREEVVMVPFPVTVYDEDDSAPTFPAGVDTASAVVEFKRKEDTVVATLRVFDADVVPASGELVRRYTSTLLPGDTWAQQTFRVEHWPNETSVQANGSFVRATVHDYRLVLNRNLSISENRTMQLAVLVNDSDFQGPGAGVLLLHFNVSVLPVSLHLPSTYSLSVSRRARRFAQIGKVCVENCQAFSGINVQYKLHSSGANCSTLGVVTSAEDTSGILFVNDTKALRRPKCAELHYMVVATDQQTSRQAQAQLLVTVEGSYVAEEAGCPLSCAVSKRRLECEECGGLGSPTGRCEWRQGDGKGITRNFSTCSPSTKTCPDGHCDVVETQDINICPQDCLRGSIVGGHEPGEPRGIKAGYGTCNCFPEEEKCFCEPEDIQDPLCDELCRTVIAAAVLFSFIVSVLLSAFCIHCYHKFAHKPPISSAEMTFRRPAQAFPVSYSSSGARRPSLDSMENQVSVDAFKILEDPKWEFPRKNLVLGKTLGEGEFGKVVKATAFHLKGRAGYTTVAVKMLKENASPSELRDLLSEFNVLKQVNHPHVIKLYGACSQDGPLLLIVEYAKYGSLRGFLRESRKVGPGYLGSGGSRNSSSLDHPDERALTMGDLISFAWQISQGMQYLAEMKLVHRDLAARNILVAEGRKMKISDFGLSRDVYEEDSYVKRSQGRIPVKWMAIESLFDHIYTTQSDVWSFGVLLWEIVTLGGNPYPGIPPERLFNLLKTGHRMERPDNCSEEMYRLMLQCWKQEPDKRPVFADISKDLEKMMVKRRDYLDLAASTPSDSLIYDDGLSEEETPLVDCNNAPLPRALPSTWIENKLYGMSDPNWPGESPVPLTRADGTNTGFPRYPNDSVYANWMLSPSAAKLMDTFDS

[11] = target: T11, SAPK2a(T106M)(h) (Homo sapiens, UniProt Q16539, T106M); assay: Kinase panel
T11 construct: purchased Millipore KinaseProfiler
T11 sequence (Q16539 whole entry T106M): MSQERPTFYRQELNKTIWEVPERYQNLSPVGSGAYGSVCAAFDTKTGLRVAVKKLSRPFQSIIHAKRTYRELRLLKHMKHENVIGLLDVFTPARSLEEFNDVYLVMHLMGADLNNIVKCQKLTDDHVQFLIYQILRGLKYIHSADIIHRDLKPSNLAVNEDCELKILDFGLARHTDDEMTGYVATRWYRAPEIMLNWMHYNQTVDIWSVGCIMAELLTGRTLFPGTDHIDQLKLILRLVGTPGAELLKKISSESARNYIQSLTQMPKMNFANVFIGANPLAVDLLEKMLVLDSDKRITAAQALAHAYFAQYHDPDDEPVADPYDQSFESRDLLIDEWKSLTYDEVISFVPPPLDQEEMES

[12] = target: T12, TAK1(h) (Homo sapiens, UniProt O43318); assay: Kinase panel
T12 construct: purchased Millipore KinaseProfiler
T12 sequence (O43318 1-303 limits assumed): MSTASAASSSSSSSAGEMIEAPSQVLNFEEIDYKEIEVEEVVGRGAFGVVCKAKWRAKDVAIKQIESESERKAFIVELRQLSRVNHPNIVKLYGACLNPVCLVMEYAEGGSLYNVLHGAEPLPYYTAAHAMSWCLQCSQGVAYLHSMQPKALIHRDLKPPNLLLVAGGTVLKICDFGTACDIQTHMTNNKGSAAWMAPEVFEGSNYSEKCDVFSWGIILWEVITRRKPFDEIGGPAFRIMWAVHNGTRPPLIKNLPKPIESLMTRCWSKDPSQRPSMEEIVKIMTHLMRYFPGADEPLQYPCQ

[13] = target: T13, TrkB(h) (Homo sapiens, UniProt Q16620); assay: Kinase panel
T13 construct: purchased Millipore KinaseProfiler

[14] = target: ROCK; assay: Kinase IC50 assay

Work on `Cn1ncc(Cl)c1-c1cc(C(=O)N[C@H](CN)Cc2cccc(F)c2)sc1Cl` [GSK2110183] yielded an inhibition at 0.5 µM [1] of -1%, an inhibition at 10 µM [1] of 6% and an inhibition at 0.5 µM [2] of -1%. The inhibition at 10 µM [2] was 20%, the inhibition at 0.5 µM [3] was 11% and the inhibition at 10 µM [3] was 15%. It also gave an inhibition at 0.5 µM [4] of 5%, an inhibition at 10 µM [4] of 9% and an inhibition at 0.5 µM [5] of -4%. The inhibition at 10 µM [5] was 8%, the inhibition at 0.5 µM [6] was 12% and the inhibition at 10 µM [6] was 71%. For the same compound, the inhibition at 0.5 µM [7] was 7%, the inhibition at 10 µM [7] was 25% and the inhibition at 0.5 µM [8] was 5%. It also gave an inhibition at 10 µM [8] of 18%, an inhibition at 0.5 µM [9] of 2% and an inhibition at 10 µM [9] of 26%. The inhibition at 0.5 µM [10] was 4%, the inhibition at 10 µM [10] was 14% and the inhibition at 0.5 µM [11] was -5%. For the same compound, the inhibition at 10 µM [11] was -6%, the inhibition at 0.5 µM [12] was -3% and the inhibition at 10 µM [12] was 1%. For the same compound, the inhibition at 0.5 µM [13] was 15%, the inhibition at 10 µM [13] was 74% and the IC50 [14] was 100 nM.
`Cn1ncc(Cl)c1-c1cc(C(=O)N[C@H](CN)Cc2ccc(F)c(F)c2)oc1Cl` [GSK2141795] showed an inhibition at 0.5 µM ([1]; 0.5 µM, read-out: % Inhibition) of -2%, an inhibition at 10 µM ([1]; 10 µM, read-out: % Inhibition) of -2% and an inhibition at 0.5 µM ([2]; 0.5 µM, read-out: % Inhibition) of -6%. It also gave an inhibition at 10 µM ([2]; 10 µM, read-out: % Inhibition) of 39%, an inhibition at 0.5 µM ([3]; 0.5 µM, read-out: % Inhibition) of 0% and an inhibition at 10 µM ([3]; 10 µM, read-out: % Inhibition) of -14%. The inhibition at 0.5 µM ([4]; 0.5 µM, read-out: % Inhibition) was -6%, the inhibition at 10 µM ([4]; 10 µM, read-out: % Inhibition) was 10% and the inhibition at 0.5 µM ([5]; 0.5 µM, read-out: % Inhibition) was -3%. For the same compound, the inhibition at 10 µM ([5]; 10 µM, read-out: % Inhibition) was 16%, the inhibition at 0.5 µM ([6]; 0.5 µM, read-out: % Inhibition) was 6% and the inhibition at 10 µM ([6]; 10 µM, read-out: % Inhibition) was 81%. For the same compound, the inhibition at 0.5 µM ([7]; 0.5 µM, read-out: % Inhibition) was 6%, the inhibition at 10 µM ([7]; 10 µM, read-out: % Inhibition) was 31% and the inhibition at 0.5 µM ([8]; 0.5 µM, read-out: % Inhibition) was -2%. For the same compound, the inhibition at 10 µM ([8]; 10 µM, read-out: % Inhibition) was 13%, the inhibition at 0.5 µM ([9]; 0.5 µM, read-out: % Inhibition) was -5% and the inhibition at 10 µM ([9]; 10 µM, read-out: % Inhibition) was 14%. For the same compound, the inhibition at 0.5 µM ([10]; 0.5 µM, read-out: % Inhibition) was -19%, the inhibition at 10 µM ([10]; 10 µM, read-out: % Inhibition) was 31% and the inhibition at 0.5 µM ([11]; 0.5 µM, read-out: % Inhibition) was -15%. For the same compound, the inhibition at 10 µM ([11]; 10 µM, read-out: % Inhibition) was -33%, the inhibition at 0.5 µM ([12]; 0.5 µM, read-out: % Inhibition) was -10% and the inhibition at 10 µM ([12]; 10 µM, read-out: % Inhibition) was -10%. The inhibition at 0.5 µM ([13]; 0.5 µM, read-out: % Inhibition) was 27%, the inhibition at 10 µM ([13]; 10 µM, read-out: % Inhibition) was 85% and the IC50 [14] was 126 nM.
